Consider 3 molecules from patent US20040092590A1, “Glycemic control for prediabetes and/or diabetes Type II using docosahexaenoic acid” (priority 2002, published 2004).

Structures are written as SMILES.

In data set [1] the test system is KK-Ay mouse (obese diabetic mice). Particulars: 100 mg/kg body weight, not normal or lean diabetic mice; cited from earlier work.
Data set [2] relates to subjects with HDL levels below the sex-specific median. The experiment in a line: Randomized, double-blind, controlled trial of DHASCO-S capsules, six weeks; metabolic disturbance score, serum lipids, LDL particles. It counts as in vivo, human. Particulars: 1.52 g DHA per day. An excerpt: DHASCO-S capsules (which contained DHA as a triglyceride oil extracted from Schizochytrium sp. cells, obtained from Martek Biosciences Corp., Columbia, Md.) were used in the following study. Subjects (n=57) were enrolled in a randomized, double-blind, controlled trial to assess the response to 1.52 g of DHA per day for six weeks. Subjects were aged 21-80 and had HDL levels below the sex-specific median (a criterion for metabolic syndrome). The average triglyceride (TG) level at the beginning of the study was 169-179 mg/dl (metabolic syndrome criterion >150 mg/dL). The average distribution of LDL particles in this population was 44-50% small dense particles. Small dense particles are another lipid hallmark of metabolic syndrome. […] The average waist circumference for men and women combined was about 100+/−2.5 cm (criterion for metabolic syndrome is about 88 cm for women and about 102 cm for men). The average blood pressure in the study was normotensive at 120/77 mmHg.
The metabolic disturbance score was calculated to assess the relationship between independent variables and the criterion related to metabolic syndrome. The score is a composite of values for selected risk factors including: serum triglycerides, serum HDL cholesterol, systolic blood pressure, waist circumference, and fasting serum glucose. The following formula was utilized to calculate the metabolic score, where Z=the z score, i.e., the number of standard deviations above or below the mean value for each variable (Micciolo 1991; Maki 1994): Metabolic Disturbance Score=Z for triglycerides+Z for systolic blood pressure+Z for waist circumference+Z for glucose−Z for HDL cholesterol. Since triglyceride values were not normally distributed, a natural log-transformation was performed to normalize the distribution prior to calculating the Z score.
Additionally, pre-specified subgroup analyses were performed for serum lipid and metabolic disturbance score values. The triglyceride subgroups were split at the median baseline value (170 mg/dL). A Body Mass Index (BMI) of 30 kg/m^2 was chosen as the cut-point for BMI subgroups (BMI<30 kg/m2 and BMI≧30 kg/m^2) because persons with a BMI≧30 kg/M^2 are considered obese (Expert Panel 1998).

Data set [3] relates to patients with dyslipidemia. The experiment in a line: Clinical study: DHASCO capsules co-administered with statin medication for 12 months. Particulars: patients treated with DHA. It counts as in vivo, human. An excerpt:
Thus, the present inventors have discovered that DHA has a long term effect (as shown by reduction in glycosylated hemoglobin levels reflecting longer term glucose control integrated over 2-3 months). Finally, the inventors have discovered that therapy using DHA-containing oils can be effective at DHA levels that are not excessive (e.g., at levels which minimize side effects associated with fatty acid ingestion).
In a clinical study, DHASCO capsules (which contained DHA as a triglyceride oil extracted from Crypthecodinium cohnii cells, obtained from Martek Biosciences Corp., Columbia, Md.) were co-administered with statin medication to patients with dyslipidemia. Hyperlipidemic patients already being treated with a stable dose of a statin medication but still failing to meet NCEP guidelines for LDL-cholesterol or triglycerides were treated with either 200 or 1000 mg of DHA daily for 12 months. HbA1c levels (glycosylated hemoglobin, a marker of glycemic control) were measured in plasma at baseline and after 8 or 12 months of treatment.
Reduction in CRP of this extent is clinically significant, and may be correlated with a benefit of reduced risk of Type II diabetes onset, independent of other Type II risk factors.

The subject of the next data set is patients. Conditions: cited from earlier work.

As for `CC/C=C\C/C=C\C/C=C\C/C=C\C/C=C\C/C=C\CCC(=O)OCC` [DHA ethyl ester], in data set [1], the blood glucose result is “reduced”, the insulin sensitivity result is “enhanced” and the plasma triglycerides result is given as “reduced”.
For `CC/C=C\C/C=C\C/C=C\C/C=C\C/C=C\C/C=C\CCC(=O)O` [DHA, docosahexaenoic acid], the “increase in large LDL particles from baseline to end of treatment” value in data set [2] (P=0.028 vs control) is 32.4%. Moreover, the “change in small LDL particles from baseline” value in data set [2] (P=0.191 vs control) is listed as −23.2%. Further, in data set [2] (p=0.001 vs control), the “change in TG from baseline” value is listed as −25.4%. Moreover, in data set [2] (p=0.102 vs control), the “increase in HDL” value is “+9.0%”. In data set [2] (subjects with baseline triglycerides >=170 mg/dL, p=0.001 vs control), the “change from baseline in metabolic disturbance score, subgroup” value is reported as −1.16. In data set [3], the “overall reduction in CRP levels” value was 15%.
Take `CN(C)C(=N)N=C(N)N` [Metformin]: in the data set on patients (fraction of patients), the “patients with gastrointestinal reactions” value is on record as “about a third”. Further, the “lactic acidosis cases that are fatal” value in the data set with patients (rare reaction) is “about 50%”.
